The source made the active and inactive calls. The rule behind the calls is not given here.
What was measured:
[1] = test system: NCI-H460; assay: cells; type: functional; details: Homo sapiens, time 72 hrs, read-out: GI
[2] = test system: NCI-H460; assay: cells; type: functional; details: Homo sapiens, time 72 hrs, read-out: GI; remark: listed apart in the source
[3] = test system: HCT-116; assay: cells; type: functional; details: Homo sapiens, time 72 hrs, read-out: GI
[4] = test system: HCT-116; assay: cells; type: functional; details: Homo sapiens, time 72 hrs, read-out: GI; remark: listed apart in the source
[5] = test system: HeLa; assay: cells; type: functional, cell-based; details: Homo sapiens, 72 h
Description: Antiproliferative activity against human Hela cells assessed as inhibition of cell growth incubated for 72 hrs by CCK-8 assay

[6] = test system: HCT-116; assay: cells; type: functional, cell-based; details: Homo sapiens, HCT-116, 72 h
Description: Antiproliferative activity against human HCT116 cells assessed as inhibition of cell growth incubated for 72 hrs by CCK-8 assay

[7] = test system: A-375; assay: cells; type: functional, cell-based; details: Homo sapiens, A-375, 72 h
Description: Antiproliferative activity against human A375 cells assessed as inhibition of cell growth incubated for 72 hrs by CCK-8 assay

[8] = test system: NCI-H460; assay: cells; type: functional, cell-based; details: Homo sapiens, NCI-H460, 72 h
Description: Antiproliferative activity against human H460 cells assessed as inhibition of cell growth incubated for 72 hrs by CCK-8 assay

[9] = test system: SMMC-7721; assay: cells; type: functional, cell-based; details: Homo sapiens, SMMC-7721, 72 h
Description: Antiproliferative activity against human SMMC7721 cells assessed as inhibition of cell growth incubated for 72 hrs by CCK-8 assay

[10] = biological target: Histone deacetylase 2 (Homo sapiens, UniProt Q92769); assay: Inhibition of human recombinant HDAC2 preincubated for 10 mins followed by addition of substrate fluor De Lys green measured after 30 mins by fluorescent plate reader analysis
[11] = test system: NCI-H460; assay: Antimigratory activity against human H460 cells assessed as inhibition of cell migration at 0.5 uM measured after 48 hrs by cell scratch assay; type: functional, cell-based
[12] = test system: A-375; assay: Antimigratory activity against human A375 cells assessed as inhibition of cell migration at 0.25 uM measured after 48 hrs by cell scratch assay; type: functional, cell-based
[13] = Cytotoxicity against mouse NIH/3T3 cells incubated for 72 hrs by CCK-8 assay; type: cell-based; details: NIH3T3, 72 h
[14] = test system: A-375; assay: Induction of apoptosis in human A375 cells assessed as number of apoptotic cells at 2 uM incubated for 48 hrs by annexin V-FITC/PI based flow cytometric analysis relative to control; type: functional
[15] = test system: HCT-116; assay: Induction of apoptosis in human HCT116 cells assessed as number of apoptotic cells at 2 uM incubated for 48 hrs by annexin V-FITC/PI based flow cytometric analysis relative to control; type: functional

Chain of Histone deacetylase 2 (Q92769 whole entry): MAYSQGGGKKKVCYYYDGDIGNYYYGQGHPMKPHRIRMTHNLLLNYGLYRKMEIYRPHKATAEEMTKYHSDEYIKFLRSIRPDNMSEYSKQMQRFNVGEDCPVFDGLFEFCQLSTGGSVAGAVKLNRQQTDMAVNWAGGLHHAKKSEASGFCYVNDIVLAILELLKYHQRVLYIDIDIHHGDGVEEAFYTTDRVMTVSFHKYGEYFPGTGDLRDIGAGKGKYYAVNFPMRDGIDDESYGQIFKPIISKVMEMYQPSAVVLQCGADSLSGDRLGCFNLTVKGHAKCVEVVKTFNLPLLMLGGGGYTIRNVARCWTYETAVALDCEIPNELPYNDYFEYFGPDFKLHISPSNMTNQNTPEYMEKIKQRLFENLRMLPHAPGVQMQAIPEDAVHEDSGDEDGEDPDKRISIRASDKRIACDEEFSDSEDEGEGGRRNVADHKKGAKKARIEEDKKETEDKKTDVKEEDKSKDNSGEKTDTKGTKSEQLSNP

Row | SMILES | inhibition of growth at 2 µM [1] | inhibition of growth at 8 µM [2] | inhibition of growth at 8 µM [3] | inhibition of growth at 2 µM [4] | IC50 [5] | IC50 [6] | IC50 [7] | IC50 [8] | IC50 [9] | IC50 [10] | inhibition [11] | inhibition [12] | IC50 [13] | Activity [14] | Activity [15]
1 | O=C(CCCNC(=O)c1n[nH]cc1NC(=O)c1c(F)cccc1F)NO | 13% | 25.3% | 6.54% | 0.91% |  |  |  |  |  |  |  |  |  |  | 
2 | O=C(CCCCCNC(=O)c1n[nH]cc1NC(=O)c1c(Cl)cccc1Cl)NO | 15.1% | 21.3% | 4.66% | 3.02% |  |  |  |  |  |  |  |  |  |  | 
3 | O=C(NO)c1ccc(CNC(=O)c2n[nH]cc2NC(=O)c2ccccc2Cl)cc1 | 26.6% | 29.8% | 71.6% | 53.8% | 16.2 µM | 2.4 µM | 6.42 µM | 6.17 µM | 21.8 µM |  |  |  |  |  | 
4 | O=C(Cc1ccc(NC(=O)c2n[nH]cc2NC(=O)c2c(F)cccc2Cl)cc1)NO | 12.5% | 37% | 44.9% | 21.7% |  |  |  |  |  |  |  |  |  |  | 
5 | Nc1ccccc1NC(=O)c1ccc(CNC(=O)c2n[nH]cc2NC(=O)c2ccccc2)cc1 | 11.8% | 61.7% | 88.6% | 62.9% | 4.06 µM | 1.66 µM | 1.59 µM | 6.32 µM | 6.62 µM |  |  |  |  |  | 
6 | O=C(Cc1ccc(NC(=O)c2n[nH]cc2NC(=O)c2c(F)cccc2F)cc1)NO | 0.04% | 30.2% | 25.6% | 29.9% |  |  |  |  |  |  |  |  |  |  | 
7 | O=C(Cc1ccc(NC(=O)c2n[nH]cc2NC(=O)c2ccccc2)cc1)NO | 11.8% | 23.1% | 14.2% | 9.56% |  |  |  |  |  |  |  |  |  |  | 
8 | O=C(CCCCCCNC(=O)c1n[nH]cc1NC(=O)c1c(F)cccc1Cl)NO | 0.88% | 28.7% | 15.7% | 10% |  |  |  |  |  |  |  |  |  |  | 
9 | O=C(CCCCCCNC(=O)c1n[nH]cc1NC(=O)c1c(F)cccc1F)NO | 3.57% | 6.84% | 13.8% | 12.1% |  |  |  |  |  |  |  |  |  |  | 
10 | Nc1ccccc1NC(=O)Cc1ccc(NC(=O)c2n[nH]cc2NC(=O)c2ccccc2F)cc1 | 6.06% | 23.4% | 20.4% | 16.5% |  |  |  |  |  |  |  |  |  |  | 
11 | Nc1ccccc1NC(=O)c1ccc(CNC(=O)c2n[nH]cc2NC(=O)c2ccccc2F)cc1 | 7.25% | 57.6% | 81.2% | 39.8% | 3.44 µM | 4.8 µM | 2.27 µM | 9.99 µM | 6.85 µM |  |  |  |  |  | 
12 | COc1ccccc1C(=O)Nc1c[nH]nc1C(=O)NCc1ccc(C(=O)Nc2ccccc2N)cc1 | 5.73% | 45.5% | 75.4% | 23.5% | 8.13 µM | 3.68 µM | 2.66 µM | 7.35 µM | 8.32 µM |  |  |  |  |  | 
13 | Nc1ccccc1NC(=O)Cc1ccc(NC(=O)c2n[nH]cc2NC(=O)c2ccccc2)cc1 | 0.37% | 8.93% | 69.2% | 60% |  |  |  |  |  |  |  |  |  |  | 
14 | Nc1ccccc1NC(=O)Cc1ccc(NC(=O)c2n[nH]cc2NC(=O)c2ccccc2Cl)cc1 | 3.08% | 27.8% | 52% | 29.2% |  |  |  |  |  |  |  |  |  |  | 
15 | O=C(Cc1ccc(NC(=O)c2n[nH]cc2NC(=O)c2ccccc2Cl)cc1)NO | 9.04% | 26.6% | 4.52% | 0.84% |  |  |  |  |  |  |  |  |  |  | 
16 | COc1ccccc1C(=O)Nc1c[nH]nc1C(=O)Nc1ccc(CC(=O)Nc2ccccc2N)cc1 | 3.12% | 26.8% | 30.5% | 13.6% |  |  |  |  |  |  |  |  |  |  | 
17 | Nc1ccc(F)cc1NC(=O)c1ccc(CNC(=O)/C=C/c2cccnc2)cc1 | 1.73% | 38.2% | 72.2% | 64.4% | 14.9 µM | 2.77 µM | 4.11 µM | > 32 µM | 25.6 µM | 0.023 µM | Active | Active | 2.46 µM | 62.6% | 44.3%

From ChEMBL document CHEMBL4680185, “Discovery of novel cyclin-dependent kinase (CDK) and histone deacetylase (HDAC) dual inhibitors with potent in vitro and in vivo anticancer activity” (Eur J Med Chem, 2020)
